From US3954793A, “1-(2-Propynyl)-1 H-indazole compounds” (priority 1973, dated 1976)
Values joined by “and” are separate entries in the source; they are usually repeats but may differ in a detail not shown here. Equal values may be shown once.

How the values were obtained:
[1] = system: polyvalent resistant (CH strain) houseflies; assay: whole plant or invertebrate; assay type: in vivo
Procedure: The effect of O-(2-propynyl) oximes with Dimetilan and with GS 13798 was obtained from tests on polyvalent resistant (CH strain) houseflies that had been chilled and to the dorsal region of which was applied an acetone solution of synergist and insecticide at a ratio of two to one. Duplicate tests were performed using 10 four to five-day old female houseflies per test. After dosage, the flies were put in a plastic petri dish with cotton soaked in a sugar-water solution. These doses of insecticide used without synergist caused 10-40% mortality.
(§1) In Table IX, and in the tables following it, the doses of topically applied insecticides and of synergists unless otherwise noted are expressed as micrograms per fly (μg/fly).
The effect of compounds II-C, II-D and II-E with Dimetilan and GS 13798 was determined, following the procedure of Example 5, from tests on polyvalent resistant (CH strain) houseflies. These doses of insecticide used without synergist caused 10-40% mortality.
(§2) The synergistic effect with GS 13005 of compounds I-A, I-B, I-D, I-E, I-F, I-G and I-I was determined from topical application tests to IN/WHO strain, Rutgers A strain and polyvalent CH strain houseflies using the procedures of Example 5. The percent kills of the IN/WHO strain flies after 24 hours are shown in Table XXVIII; of the Rutgers A strain, in Table XXIX; and of the polyvalent CH strain, in Table XXX. The doses of insecticide alone to the CH strain files caused 10-40% mortality.
(§3) The synergistic effect with Diazinon and GS 13005 of various of the benzyl 2-propynyl ethers identified in Tables II and IIa was determined by topical application tests on IN/WHO strain, and Rutgers A strain and polyvalent, resistant, CH strain houseflies using the procedures of Example 5. The percent kills after 24 hours of IN/WHO strain flies are shown in Table XXXI; of Rutgers A strain flies, in Table XXXII; and of CH strain flies, in Table XXXIII. The doses of insecticide alone to the CH strain flies caused 10-40% mortality.
The synergistic effect with pyrethrum of various synergist compounds was determined by topical application tests on polyvalent, resistant CH strain houseflies following the procedure of Example 5. Application of the insecticide alone caused 10-40% mortality.

[2] = system: IN/WHO strain house flies; assay: topical application, percent kill after 24 hours, susceptible IN/WHO strain; assay type: in vivo, female)
Procedure: as §1
(§4) The synergistic effect of O-(2-propynyl) oximes with mobam was determined from topical application tests on susceptible, female, IN/WHO strain house flies and from tests on resistant, female, Rutgers A strain house flies. The synergist and insecticide were dissolved in ACS Grade acetone in such quantities that a 1.0 μ liter volume applied to the thorax of 3-to-5 day old CO2 -anesthetized female adult house flies contained the desired dosage. After being treated, the flies were confined, 10 to a plaster petri dish, with 3-5 dishes/treament, and held for 24-hr. observation of mortality. Reconstituted skim milk on cotton dental wicks was provided during the holding period. The percent kills after 24 hours are shown in Table X for the IN/WHO strain and Table XI for the Rutgers A strain.
(§5) The synergistic effect of benzyl 2-propynyl ethers with mobam was determined from topical application tests on IN/WHO and Rutgers A strain houseflies, following the procedure of Example 5. The percent kills after 24 hours are shown in Table XIV for the IN/WHO strain and in Table XV for the Rutgers A strain.
The effects of varying the insecticide dose and the synergist-insecticide ratio are further illustrated, with synergist compounds II-D, II-E, II-F and Mobam insecticide, in Tables XVI, XVII and XVIII. […]
The effect on IN/WHO flies of synergist compound IV-C, identified in Table IV, with mobam was determined by the topical application procedure of Example 5. […]
as §2
The synergistic effect with Diazinon and GS 13005 of various of the benzyl 2-propynyl ethers identified in Tables II and IIa was determined by topical application tests on IN/WHO strain, and Rutgers A strain and polyvalent, resistant, CH strain houseflies using the procedures of Example 5. The percent kills after 24 hours of IN/WHO strain flies are shown in Table XXXI; of Rutgers A strain flies, in Table XXXII; and of CH strain flies, in Table XXXIII. The doses of insecticide alone to the CH strain flies caused 10-40% mortality. […]
(§6) The synergistic effect on IN/WHO strain flies and Rutgers A strain flies of compound IV-C with GS 13005 and with Diazinon was determined by the topical application procedure of Example 5. The percent kills of IN/WHO strain flies after 24 hours are shown in Tables XXXVI and XXXVII; the percent kills of Rutgers A strain flies are shown in Tables XXXVIII and XXXIX.

[3] = system: Rutgers A strain house flies; assay: topical application, percent kill after 24 hours, resistant Rutgers A strain; assay type: in vivo, female)
Procedure: as §1, §4, §5
The synergistic effect with Diazinon of compounds I-B, I-D, I-F, I-G, I-H and I-I, identified in Tables I and Ia, was determined from topical application tests on IN/WHO strain houseflies and on Rutgers A strain houseflies by the procedure of Example 5. The percent kills after 24 hours are shown in Table XXV for the IN/WHO strain and Table XXVI for the Rutgers A strain.
as §2, §3, §6

[4] = system: Wilson strain house flies; assay type: in vivo, Wilson strain (susceptible); conditions: for Contact Synergistic Ratio, Pyrolan: LC50 pyrolan alone / LC50 with synergist, synergist to insecticide 5:1 by weight; for Contact Synergistic Ratio, Carbaryl: in vivo
Procedure: The required solutions of the insecticide and of the synergist compound were prepared in acetone at a concentration of 1 milligram per milliliter. One-pint wide mouth glass jars were coated with the appropriate insecticide-synergist combination by rolling the jars containing aliquots of the appropriate solutions diluted to three milliliters with acetone to deposit, by evaporation, a film of the test materials. The flies were transferred under carbon dioxide anesthesia and held in the jar at room temperature. Perforated aluminum foil was used to cover the jars and to hold cotton saturated with 10% sugar solution. Counts were made at intervals, but the recorded mortality was based on 24-hour kill, rather than knockdown. All prostrate non-moving flies were considered dead. A determination was then made of the contact synergistic ratio [SR], which is the ratio of the LC50 of insecticide alone to the LC50 of the insecticide when applied together with the synergist. The LC50 of the insecticide was estimated from a log-probit plot of percent kill versus dosage. […] The LC50 of the combination of insecticide and synergist was determined at a synergist to insecticide parts by weight ratio of five to one.

male mice = assay: extension of sleeping time of depressant drugs by synergists; assay type: in vivo, male mice (Swiss albino white); conditions: for Mean Sleeping Time, Noludar / Relative Sleeping Time, Noludar: Noludar 110 mg/kg; for Relative Sleeping Time, Noludar / Relative Sleeping Time, Secobarbital: treated/control; for Mean Sleeping Time, Secobarbital / Relative Sleeping Time, Secobarbital: Secobarbital 37 mg/kg
Procedure: The selectivity of the synergist compounds of this invention is illustrated by the results of sleeping-time extension tests and of acute toxicity tests on Swiss albino white male mice.
The effect of various synergist compounds on sleeping time of sodium secobarbital [Secobarbital] and of 3,3-diethyl-5-methyl-2,4-dioxypiperidine [Noludar] was determined by administering the drug, with and without synergist, to approximately 38-day old male mice weighing from 25 to 30 grams. Synergists were administered in each of two doses, 74.0 mg/kg (dilution being 2.0 mg/0.1 ml corn oil), and 110.0 mg/kg (dilution 3.0 mg/0.1 ml oil). Secobarbital was administered at a dose of 37.0 mg/kg (dilution 1.0 mg/0.1 ml water). Noludar was administered at a dose of 110.0 mg/kg (dilution 3.0 mg/0.1 ml water). The synergist was administered one hour prior to administration of the Secobarbital or Noludar. Secobarbital and Noludar sleeping times were obtained for both the control (drug only) and the treated (synergist plus drug) mice by noting the time lapse between the administration of the drug and the recovery of the righting reflex, i.e. when the animal regains conciousness and can walk up an inclined wooden tray with coordination. The relative sleeping time (R.S.) was noted. The R.S. is the extended sleeping time in the treated mice (synergist plus drug) divided by the sleeping time in the control mice (drug only). The mean sleeping time for the treated mice and the R.S. are shown on Table XXXXIV for various synergist compounds.

[5] = system: Swiss albino, white male mice; assay: acute toxicity and synergism of acute toxicity in mice; assay type: in vivo; conditions: 48 hours, eight mice
Procedure: To determine the acute toxicity of dimetilan alone, eight dosage levels of Dimetilan, ranging from 4 to 32 mg per kg were applied to eight, Swiss, albino, white, male mice per dosage level. The mice weighed approximately 23 to 27 grams and were five to six weeks old. The Dimetilan was administered intraperitoneally in 0.1 ml of corn oil one hour after the administration of the same dose of corn oil alone.
To determine the acute toxicity of the synergist alone, various synergists were administered intraperitoneally at a dose of 1000 mg/kg to each of a group of eight mice. The number of animals dead at the end of 72 hours is reported in the left hand column of Table XXXXVI.
The synergism of the acute toxicity of Dimetilan by various synergists was determined by tests on Swiss albino, white male mice aged five to six weeks and weighing 23 to 27 grams. The synergists and insecticides were dissolved in corn oil and the drugs were dissolved in distilled water. All compounds were administered intraperitoneally by injection in the lower quadrent of the abdomen. The synergist was administered in 0.1 ml of corn oil one hour prior to administration of the insecticide. Eight mice were treated, per dosage, with each synergist. The mice were watched for a minimum of 6 hours while held in a glass jar with bedding individually after intraperitoneal injection of the test solutions. Lethality was noted, the animals were weighed and transferred in cages, and food and water were supplied. Control mice were given 0.1 ml of corn oil at the time of administration of the synergist to the test mice and 0.1 ml corn oil plus Dimetilan at the time of administration of the insecticide to the test mice.
By the same procedure, the synergism of acute toxicity of GS 13005, Secobarbital and 6-dimethylamino-4,4-diphenyl-3-heptanone [Methadone] was determined.

[6] = synergist 110 mg/kg one hour prior
[7] = synergist 74 mg/kg one hour prior
[8] = Dimetilan 8 + synergist 240 mg/kg i.p.

CCOP(=S)(OCC)Oc1cc(C)nc(C(C)C)n1 [Diazinon, O,O-diethyl O-(2-isopropyl-4-methyl-6-pyrimidyl) phosphorothioate, reference compound]
mortality, insecticide used without synergist ([1]; house fly, in vivo, topical or ocular, 24 h): 10-40% | percent kill after 24 hours, Diazinon alone ([2]; Diazinon 0.02, synergist 0 μg/fly): 3% | percent kill after 24 hours, Diazinon alone ([2]; Diazinon 0.03, synergist 0 μg/fly, 1440 min): 0% and 5% | percent kill after 24 hours, Diazinon alone ([3]; Diazinon 1.0, synergist 0 μg/fly): 0% | percent kill after 24 hours, Diazinon alone ([3]; Diazinon 1.5, synergist 0 μg/fly, 1440 min): 3% and 0%

CNC(=O)Oc1cccc2ccc(C)nc12 [GS 13798, 8-(2-methylquinolyl)-N-methylcarbamate, reference compound]
mortality, insecticide used without synergist ([1]; insecticide alone at the doses of the CH strain tables, 1440 min): 10-40%

C#CCON=Cc1ccc(N(C)C)cc1 [I-C]
Contact Synergistic Ratio, Pyrolan [4]: 20 | Contact Synergistic Ratio, Carbaryl [4]: 200 | Mean Sleeping Time, Noludar (male mice; [6]): 34 min | Relative Sleeping Time, Noludar (male mice; synergist 110 mg/kg): 1.0 | Mean Sleeping Time, Secobarbital (male mice; [7]): 30 min | Relative Sleeping Time, Secobarbital (male mice; synergist 74 mg/kg): 1.1 | Mean Sleeping Time, Secobarbital (male mice; [6]): 108 min | Relative Sleeping Time, Secobarbital (male mice; synergist 110 mg/kg): 1.8 | number of mice dead, with Dimetilan [5, 8]: 0

C#CCn1ncc2cc([N+](=O)[O-])ccc21 [III-A]
Contact Synergistic Ratio, Pyrolan [4]: 30 | Contact Synergistic Ratio, Carbaryl [4]: 143 | Mean Sleeping Time, Noludar (male mice; [6]): 32 min | Relative Sleeping Time, Noludar (male mice; synergist 110 mg/kg): 1.0 | Mean Sleeping Time, Secobarbital (male mice; [6]): 50 min | Relative Sleeping Time, Secobarbital (male mice; synergist 110 mg/kg): 1.1 | number of mice dead, with Dimetilan [5, 8]: 0

C#CCn1nc(Cl)c2ccccc21 [III-B]
Contact Synergistic Ratio, Pyrolan [4]: 30 | Contact Synergistic Ratio, Carbaryl [4]: 117 | Mean Sleeping Time, Noludar (male mice; [6]): 46 min | Relative Sleeping Time, Noludar (male mice; synergist 110 mg/kg): 1.0 | Mean Sleeping Time, Secobarbital (male mice; [6]): 66 min | Relative Sleeping Time, Secobarbital (male mice; synergist 110 mg/kg): 1.3 | number of mice dead, with Dimetilan [5, 8]: 0

C#CCn1ncc2ccc(Cl)cc21 [III-D]
Contact Synergistic Ratio, Pyrolan [4]: 25 | Contact Synergistic Ratio, Carbaryl [4]: 250 | Mean Sleeping Time, Noludar (male mice; [6]): 45 min | Relative Sleeping Time, Noludar (male mice; synergist 110 mg/kg): 1.5 | Mean Sleeping Time, Secobarbital (male mice; [6]): 55 min | Relative Sleeping Time, Secobarbital (male mice; synergist 110 mg/kg): 1.2 | number of mice dead, with Dimetilan [5, 8]: 1

C#CCOC(c1ccc(Cl)cc1Cl)C(C)[N+](=O)[O-] (stereo not shown) [IV-A, 2-propynyl 1-(2,4-dichlorophenyl)-2-nitropropyl ether]
Contact Synergistic Ratio, Pyrolan [4]: 10 | Contact Synergistic Ratio, Carbaryl [4]: 134 | Mean Sleeping Time, Noludar (male mice; [6]): 78 min | Relative Sleeping Time, Noludar (male mice; synergist 110 mg/kg): 2.7 | Mean Sleeping Time, Secobarbital (male mice; [7]): 56 min | Relative Sleeping Time, Secobarbital (male mice; synergist 74 mg/kg): 2.3 | number of mice dead, with Dimetilan ([5]; Dimetilan 8 + synergist 80 mg/kg i.p.): 4 | number of mice dead, with Dimetilan [5, 8]: 7

Cc1cc(OC(=O)N(C)C)n(-c2ccccc2)n1 [Pyrolan, 3-methyl-1-phenyl-5-pyrazolyl-N-dimethylcarbamate, reference compound]
LC50 of insecticide alone ([4]; Wilson strain fly, 24-hour kill, no synergist): 0.15 mg/jar | 24 hour percent mortality, Pyrolan alone ([2]; Pyrolan 0.63 μg/fly): 0%
